Reference: PMC3402541, “Guanidylation and Tail Effects in Cationic Antimicrobial Lipopeptoids” (PLoS ONE, 2012)
In brackets after ≈: the same amount, converted by molar mass. Where a SMILES comes first, the peptide text is derived from it. [ ]: non-standard residue; d: D form. The star is where a group is joined. Undecanoyl = CCCCCCCCCCC(=O)*; Nlys = NCCCCNCC(=O)O

What was measured:
[1] = system: panel of clinically relevant and laboratory reference bacteria; experiment: Antimicrobial activity over the whole bacterial panel; type: cell-based; settings: Gram positive and Gram negative strains, no BSA
Method: Antimicrobial activity of the purified lipopeptoids was determined without replication against a panel of clinically relevant and standard reference bacterial strains according to CLSI macrobroth standards. Stock solutions at 512 µg/mL were prepared in water, with DMSO as needed, and testing was performed in glass test tubes using Muller-Hinton broth and bacteria adjusted to 5 × 10^5 CFU/mL. Bacteria were incubated with the lipopeptoid of interest for 24 hr at 37°C prior to reading. […]
After subculturing the relevant bacteria twice from frozen stock, in vitro activities of the antimicrobials were determined by macrobroth dilution methodology in accordance with the Clinical and Laboratory Standards Institute (CLSI) guidelines (3). The MICs were determined using glass test tubes (2 mL/tube) containing doubling antimicrobial dilutions of cation adjusted Mueller-Hinton broth inoculated to achieve a final concentration of approximately 5 x 10^5 CFU/mL, incubated in ambient air for 24 hr prior to reading. […]

MRSE CAN-ICU 61589 = type: cell-based, methicillin-resistant S. epidermidis; settings: CAN-ICU 61589, 24 h
Method: (§1) Antimicrobial activity of the purified lipopeptoids was determined without replication against a panel of clinically relevant and standard reference bacterial strains according to CLSI macrobroth standards. Stock solutions at 512 µg/mL were prepared in water, with DMSO as needed, and testing was performed in glass test tubes using Muller-Hinton broth and bacteria adjusted to 5 × 10^5 CFU/mL. Bacteria were incubated with the lipopeptoid of interest for 24 hr at 37°C prior to reading.
(§2) The bacteria Staphylococcus aureus ATCC 29213, methicillin-resistant S. aureus ATCC 33592, Staphylococcus epidermidis ATCC 14990, Enterococcus faecalis ATCC 29212, E. faecium ATCC 27270, Streptococcus pneumoniae ATCC 49619, Escherichia coli ATCC 25922, Pseudomonas aeruginosa ATCC 27853, and Klebsiella pneumoniae ATCC 13883 were acquired from the American Type Culture Collection (ATCC) and used as quality controls. The clinical strains methicillin-resistant S. epidermidis (MRSE) CAN-ICU 61589, E. coli CAN-ICU 61714, E. coli CAN-ICU 63074, P. aeruginosa CAN-ICU 62308, Stenotrophomonas maltophilia CAN-ICU 62584, Acinetobacter baumannii CAN-ICU 63169 were obtained from hospitals across Canada as part of the CAN-ICU studies, while methicillin-susceptible S. epidermidis (MSSE) 81388 was obtained from the 2008 CANWARD study.
(§3) After subculturing the relevant bacteria twice from frozen stock, in vitro activities of the antimicrobials were determined by macrobroth dilution methodology in accordance with the Clinical and Laboratory Standards Institute (CLSI) guidelines (3). The MICs were determined using glass test tubes (2 mL/tube) containing doubling antimicrobial dilutions of cation adjusted Mueller-Hinton broth inoculated to achieve a final concentration of approximately 5 x 10^5 CFU/mL, incubated in ambient air for 24 hr prior to reading. Colony counts were performed periodically to confirm inocula. The ATCC organisms […] ATCC 49619, Staphylococcus aureus ATCC 29213, Enterococcus faecalis ATCC 29212, Escherichia coli ATCC 25922, and Pseudomonas aeruginosa ATCC 27853 were used as quality control and to allow easy comparison to previously tested antimicrobials. Each test in this series was performed without replication. In our experience with cationic amphiphiles the results are accurate to within a single doubling.

E.coli CAN-ICU 63074 = type: cell-based, Escherichia coli; settings: CAN-ICU 63074, 24 h
Method: as §1, §2, §3

E.coli CAN-ICU 61714 = type: cell-based, Escherichia coli; settings: CAN-ICU 61714, 24 h
Method: as §1, §2, §3

E.coli ATCC 25922 = type: cell-based, Escherichia coli; settings: ATCC 25922, 24 h
Method: as §1, §2, §3

[2] = system: A. baumannii CAN-ICU 63169; type: cell-based, Acinetobacter baumannii; settings: CAN-ICU 63169, 24 h
Method: as §1, §2, §3

E. faecalis ATCC 29212 = type: cell-based, Enterococcus faecalis; settings: ATCC 29212, 24 h
Method: as §1, §2, §3

S.pneumoniae ATCC 49619 = type: cell-based, Streptococcus pneumoniae; settings: ATCC 49619, 24 h
Method: as §1, §2, §3

MSSE 81388 CANWARD 2008 = type: cell-based, methicillin-susceptible S. epidermidis; settings: 24 h
Method: as §1, §2, §3

[3] = system: S. maltophilia CAN-ICU 62584; type: cell-based, Stenotrophomonas maltophilia; settings: CAN-ICU 62584, 24 h
Method: as §1, §2, §3

S.aureus ATCC 29213 = type: cell-based, Staphylococcus aureus; settings: ATCC 29213, 24 h
Method: as §1, §2, §3

P.aeruginosa ATCC 27853 = type: cell-based, Pseudomonas aeruginosa; settings: ATCC 27853, 24 h
Method: as §1, §2, §3

[4] = system: P.aeruginosa CAN-ICU 62308; type: cell-based, Pseudomonas aeruginosa; settings: CAN-ICU 62308, 24 h
Method: as §1, §2, §3

ovine erythrocytes = experiment: Haemolytic assay; type: cell-based, sheep; settings: ovine erythrocytes in Tris buffered saline, 30 minutes, absorbance of supernatant at 540 nm
Method: Mammalian cell toxicity was determined by measuring lysis of ovine erythrocytes, a standard model for human cell toxicity. Cells were prewashed with Tris buffered saline and then incubated with a variety of lipopeptoid concentrations for 30 minutes. Following centrifugation, lysis was evaluated by testing the absorbance of the solution at 540 nm, with 0.5% NH4OH used as a positive control.
Toxicity to mammalian cells was determined using a sheep red blood cell (erythrocyte) haemolytic assay (4). Erythrocytes were washed and resuspended in Tris buffered saline prior to use, at a concentration of 1.46 - 4.5 x 10^9 cells/mL (on average 3.08 x 10^9 cells/mL). The cell suspension was diluted with varying concentrations of antimicrobials, from 50 μg/mL to 1 mg/mL and incubated for thirty minutes (final erythrocyte concentration 4.08 x 10^8 cells/mL). The samples were centrifuged following treatment and the absorbance of the supernatant was measured at 540 nm. A solution of 0.5% […] was used as a positive control, with normal buffered solution as the negative control. The toxicity was assessed as a function of percent haemolysis.

MRSA ATCC 33592 = type: cell-based, methicillin-resistant S. aureus; settings: ATCC 33592, 24 h
Method: as §1, §2, §3

E. faecium ATCC 27270 = type: cell-based; settings: ATCC 27270, 24 h
Method: as §1, §2, §3

K.pneumoniae ATCC 13883 = type: cell-based, Klebsiella pneumoniae; settings: ATCC 13883, 24 h
Method: as §1, §2, §3

SMILES | Antimicrobial activity over the panel (in words) [1] | MIC MRSE (MRSE CAN-ICU 61589) [µg/mL] | MIC MRSE in the presence of 4% bovine serum albumin (MRSE CAN-ICU 61589) [µg/mL] | MIC E.coli (E.coli CAN-ICU 63074) [µg/mL] | MIC E.coli in the presence of 4% bovine serum albumin (E.coli CAN-ICU 63074) [µg/mL] | MIC E.coli (E.coli CAN-ICU 61714) [µg/mL] | MIC E.coli in the presence of 4% bovine serum albumin (E.coli CAN-ICU 61714) [µg/mL] | MIC E.coli (E.coli ATCC 25922) [µg/mL] | MIC E.coli in the presence of 4% bovine serum albumin (E.coli ATCC 25922) [µg/mL] | MIC A. baumannii [2] [µg/mL] | MIC A. baumannii in the presence of 4% bovine serum albumin [2] [µg/mL] | MIC E. faecalis (E. faecalis ATCC 29212) [µg/mL] | MIC E. faecalis in the presence of 4% bovine serum albumin (E. faecalis ATCC 29212) [µg/mL] | MIC S.pneumoniae (S.pneumoniae ATCC 49619) [µg/mL] | MIC S.pneumoniae in the presence of 4% bovine serum albumin (S.pneumoniae ATCC 49619) [µg/mL] | MIC MSSE (MSSE 81388 CANWARD 2008) [µg/mL] | MIC MSSE in the presence of 4% bovine serum albumin (MSSE 81388 CANWARD 2008) [µg/mL] | MIC S. maltophilia [3] [µg/mL] | MIC S. maltophilia in the presence of 4% bovine serum albumin [3] [µg/mL] | MIC S.aureus (S.aureus ATCC 29213) [µg/mL] | also measured
CCCCCCCCCCC(=O)N(CCCCN)CC(=O)NCC(=O)N(CCCCN)CC(N)=O [C11-NlysGNlys] (Undecanoyl-[Nlys]-Gly-[Nlys]-NH2) | broadly inactive | 256 (≈ 513 µM) | 512 | >512 | >512 | >512 | >512 | >512 | >512 | >512 | >512 | 512 (≈ 1030 µM) | >512 | 512 (≈ 1030 µM) | 512 | 256 (≈ 513 µM) | 512 | >512 | >512 | 512 (≈ 1030 µM) | MIC S.aureus in the presence of 4% bovine serum albumin (S.aureus ATCC 29213): >512 µg/mL; MIC P.aeruginosa (P.aeruginosa ATCC 27853): >512 µg/mL; MIC P.aeruginosa in the presence of 4% bovine serum albumin (P.aeruginosa ATCC 27853): >512 µg/mL; MIC P.aeruginosa [4]: >512 µg/mL; MIC P.aeruginosa in the presence of 4% bovine serum albumin [4]: >512 µg/mL; Percent haemolysis at 100µg/mL of compound (ovine erythrocytes): 1.34%; MIC MRSA (MRSA ATCC 33592): 512 µg/mL (≈ 1030 µM); MIC MRSA in the presence of 4% bovine serum albumin (MRSA ATCC 33592): >512 µg/mL; MIC E. faecium (E. faecium ATCC 27270): 512 µg/mL (≈ 1030 µM); MIC E. faecium in the presence of 4% bovine serum albumin (E. faecium ATCC 27270): >512 µg/mL; MIC K.pneumoniae (K.pneumoniae ATCC 13883): >512 µg/mL; MIC K.pneumoniae in the presence of 4% bovine serum albumin (K.pneumoniae ATCC 13883): >512 µg/mL
CCCCCCCCCCC(=O)N(CCCCN)CC(=O)N(CCCCN)CC(=O)N(CCCCN)CC(N)=O [C11-NlysNlysNlys] | broadly inactive | 512 (≈ 899 µM) | 512 | >512 | >512 | >512 | >512 | >512 | >512 | >512 | >512 | 512 (≈ 899 µM) | >512 | >512 | >512 | 512 (≈ 899 µM) | 512 | >512 | >512 | 512 (≈ 899 µM) | MIC S.aureus in the presence of 4% bovine serum albumin (S.aureus ATCC 29213): >512 µg/mL; MIC P.aeruginosa (P.aeruginosa ATCC 27853): >512 µg/mL; MIC P.aeruginosa in the presence of 4% bovine serum albumin (P.aeruginosa ATCC 27853): >512 µg/mL; MIC P.aeruginosa [4]: >512 µg/mL; MIC P.aeruginosa in the presence of 4% bovine serum albumin [4]: >512 µg/mL; Percent haemolysis at 100µg/mL of compound (ovine erythrocytes): 0.67%; MIC MRSA (MRSA ATCC 33592): 512 µg/mL (≈ 899 µM); MIC MRSA in the presence of 4% bovine serum albumin (MRSA ATCC 33592): >512 µg/mL; MIC E. faecium (E. faecium ATCC 27270): 256 µg/mL (≈ 449 µM); MIC E. faecium in the presence of 4% bovine serum albumin (E. faecium ATCC 27270): 512 µg/mL; MIC K.pneumoniae (K.pneumoniae ATCC 13883): >512 µg/mL; MIC K.pneumoniae in the presence of 4% bovine serum albumin (K.pneumoniae ATCC 13883): >512 µg/mL
